Results as given in ChEMBL document CHEMBL3779863, “Ionic liquid-promoted one-pot synthesis of thiazoleimidazo[2,1-b][1,3,4]thiadiazole hybrids and their antitubercular activity” (Medchemcomm, 2016).
Values after ≈ are worked out from the molar mass of the structure shown.

Legend:
[1] = system: Escherichia coli; assay: Antibacterial activity against Escherichia coli ATCC 25922 after 12 hrs by serial plate dilution method; format: functional; settings: ATCC 25922, 12 h
[2] = system: Pseudomonas aeruginosa; assay: Antibacterial activity against Pseudomonas aeruginosa ATCC 27853 after 12 hrs by serial plate dilution method; format: functional; settings: ATCC 27853, 12 h
[3] = system: Staphylococcus aureus; assay: Antibacterial activity against Staphylococcus aureus ATCC 25923 after 12 hrs by serial plate dilution method; format: functional; settings: ATCC 25923, 12 h
[4] = Cytotoxicity against mouse NIH/3T3 cells assessed as cell growth inhibition at 50 ug/mL after 48 hrs by MTT assay; format: cell-based, NIH3T3; settings: read-out: GI
[5] = system: Mycobacterium tuberculosis; assay: Antimycobacterial activity against Mycobacterium tuberculosis H37Rv after 5 days by fluorescence analysis; format: functional; settings: 120 h

Work on `Cc1nn2c(/C=N/Nc3nc(-c4ccc(F)cc4)cs3)c(-c3ccc(Cl)cc3)nc2s1` yielded an MIC [1] of 25 µg/mL (≈ 53.3 µM), an MIC [2] of 50 µg/mL (≈ 107 µM) and an MIC [3] of 25 µg/mL (≈ 53.3 µM).

In the case of `Cc1ccc(-c2nc3sc(C)nn3c2/C=N/Nc2nc(-c3ccc(Cl)cc3)cs2)cc1`, the MIC [1] is reported as 50 µg/mL (≈ 108 µM), the MIC [2] is reported as 50 µg/mL (≈ 108 µM) and the MIC [3] is reported as 50 µg/mL (≈ 108 µM).

Work on `Cc1ccc(-c2csc(N/N=C/c3c(-c4ccc(C)cc4)nc4sc(C)nn34)n2)cc1` yielded an MIC [1] of 50 µg/mL (≈ 112 µM), an MIC [2] of 25 µg/mL (≈ 56.2 µM) and an MIC [3] of 50 µg/mL (≈ 112 µM).

For `COc1ccc(-c2csc(N/N=C/c3c(-c4ccc(OC)cc4)nc4sc(C(F)(F)F)nn34)n2)cc1`, the MIC [1] was 12.5 µg/mL (≈ 23.6 µM), the MIC [2] was 25 µg/mL (≈ 47.1 µM) and the MIC [3] was 25 µg/mL (≈ 47.1 µM).

For `COc1ccc(-c2csc(N/N=C/c3c(-c4ccc(C)cc4)nc4sc(C)nn34)n2)cc1`, the MIC [1] was 50 µg/mL (≈ 109 µM), the MIC [2] was 25 µg/mL (≈ 54.3 µM) and the MIC [3] was 50 µg/mL (≈ 109 µM).

With `Fc1ccc(-c2csc(N/N=C/c3c(-c4ccc(Cl)cc4)nc4sc(C(F)(F)F)nn34)n2)cc1` the inhibition at 48 h, 50 ug/mL [4] was 15.9%, the MIC [1] was 6.25 µg/mL (≈ 12 µM) and the MIC [2] was 6.25 µg/mL (≈ 12 µM). It also gave an MIC [3] of 12.5 µg/mL (≈ 23.9 µM).

`Cc1ccc(-c2csc(N/N=C/c3c(-c4ccc(Cl)cc4)nc4sc(C)nn34)n2)cc1` showed an MIC [1] of 50 µg/mL (≈ 108 µM), an MIC [2] of 50 µg/mL (≈ 108 µM) and an MIC [3] of 50 µg/mL (≈ 108 µM).

For `COc1ccc(-c2nc3sc(C(F)(F)F)nn3c2/C=N/Nc2nc(-c3ccc(C)cc3)cs2)cc1`, the inhibition at 48 h, 50 ug/mL [4] was 18.4%, the MIC [1] was 25 µg/mL (≈ 48.6 µM) and the MIC [2] was 25 µg/mL (≈ 48.6 µM). It also gave an MIC [3] of 50 µg/mL (≈ 97.2 µM).

In the case of `COc1ccc(-c2nc3sc(C(F)(F)F)nn3c2/C=N/Nc2nc(-c3ccc(F)cc3)cs2)cc1`, the inhibition at 48 h, 50 ug/mL [4] is reported as 18.9%, the MIC [1] is reported as 50 µg/mL (≈ 96.4 µM) and the MIC [2] is reported as 25 µg/mL (≈ 48.2 µM). For the same compound, the MIC [3] was 50 µg/mL (≈ 96.4 µM).

With `Cc1ccc(-c2nc3sc(C)nn3c2/C=N/Nc2nc(-c3ccc(F)cc3)cs2)cc1` the inhibition at 48 h, 50 ug/mL [4] was 22.3%, the MIC [1] was 50 µg/mL (≈ 111 µM) and the MIC [2] was 50 µg/mL (≈ 111 µM). It also gave an MIC [3] of 50 µg/mL (≈ 111 µM).

`COc1ccc(-c2csc(N/N=C/c3ccc4c(c3)c3ccccc3n4C)n2)cc1OC` showed an MIC [5] of 21 µM (≈ 9.29 µg/mL).

With `COc1ccc(-c2nc3sc(C)nn3c2/C=N/Nc2nc(-c3ccc([N+](=O)[O-])cc3)cs2)cc1` the MIC [1] was 25 µg/mL (≈ 50.9 µM), the MIC [2] was 25 µg/mL (≈ 50.9 µM) and the MIC [3] was 25 µg/mL (≈ 50.9 µM).

In the case of `COc1ccc(-c2nc3sc(C)nn3c2/C=N/Nc2nc(-c3ccc(C)cc3)cs2)cc1`, the MIC [1] is reported as 50 µg/mL (≈ 109 µM), the MIC [2] is reported as 50 µg/mL (≈ 109 µM) and the MIC [3] is reported as 50 µg/mL (≈ 109 µM).

`Cc1ccc(-c2nc3sc(C)nn3c2/C=N/Nc2nc(-c3ccc([N+](=O)[O-])cc3)cs2)cc1` showed an inhibition at 48 h, 50 ug/mL [4] of 23.3%, an MIC [1] of 6.25 µg/mL (≈ 13.1 µM) and an MIC [2] of 12.5 µg/mL (≈ 26.3 µM). It also gave an MIC [3] of 12.5 µg/mL (≈ 26.3 µM).

In the case of `O=[N+]([O-])c1ccc(-c2csc(N/N=C/c3c(-c4ccc(Cl)cc4)nc4sc(C(F)(F)F)nn34)n2)cc1`, the MIC [1] is reported as 12.5 µg/mL (≈ 22.7 µM), the MIC [2] is reported as 25 µg/mL (≈ 45.5 µM) and the MIC [3] is reported as 12.5 µg/mL (≈ 22.7 µM).

`COc1ccc(-c2csc(N/N=C/c3c(-c4ccc(OC)cc4)nc4sc(C)nn34)n2)cc1` gave an MIC [1] of 12.5 µg/mL (≈ 26.2 µM), an MIC [2] of 50 µg/mL (≈ 105 µM) and an MIC [3] of 50 µg/mL (≈ 105 µM).

For `COc1ccc(-c2nc3sc(C)nn3c2/C=N/Nc2nc(-c3ccc(F)cc3)cs2)cc1`, the MIC [1] was 50 µg/mL (≈ 108 µM), the MIC [2] was 50 µg/mL (≈ 108 µM) and the MIC [3] was 50 µg/mL (≈ 108 µM).

`COc1ccc(-c2csc(N/N=C/c3c(-c4ccc(Cl)cc4)nc4sc(C)nn34)n2)cc1` showed an inhibition at 48 h, 50 ug/mL [4] of 20.8%, an MIC [1] of 25 µg/mL (≈ 52 µM) and an MIC [2] of 50 µg/mL (≈ 104 µM). For the same compound, the MIC [3] was 50 µg/mL (≈ 104 µM).

Work on `FC(F)(F)c1nn2c(/C=N/Nc3nc(-c4ccc(Cl)cc4)cs3)c(-c3ccc(Cl)cc3)nc2s1` yielded an MIC [1] of 12.5 µg/mL (≈ 23.2 µM), an MIC [2] of 50 µg/mL (≈ 92.7 µM) and an MIC [3] of 12.5 µg/mL (≈ 23.2 µM).

`COc1ccc(-c2nc3sc(C(F)(F)F)nn3c2/C=N/Nc2nc(-c3ccc(Cl)cc3)cs2)cc1` gave an MIC [1] of 50 µg/mL (≈ 93.5 µM), an MIC [2] of 50 µg/mL (≈ 93.5 µM) and an MIC [3] of 50 µg/mL (≈ 93.5 µM).

`Cc1nn2c(/C=N/Nc3nc(-c4ccc(Cl)cc4)cs3)c(-c3ccc(Cl)cc3)nc2s1` showed an MIC [1] of 25 µg/mL (≈ 51.5 µM), an MIC [2] of 25 µg/mL (≈ 51.5 µM) and an MIC [3] of 25 µg/mL (≈ 51.5 µM).

Compound `COc1ccc(-c2csc(N/N=C/c3c(-c4ccc(Cl)cc4)nc4sc(C(F)(F)F)nn34)n2)cc1` has an inhibition at 48 h, 50 ug/mL [4] of 14.7%, an MIC [1] of 12.5 µg/mL (≈ 23.4 µM) and an MIC [2] of 25 µg/mL (≈ 46.7 µM). It also gave an MIC [3] of 25 µg/mL (≈ 46.7 µM).

With `Cc1ccc(-c2csc(N/N=C/c3c(-c4ccc(Cl)cc4)nc4sc(C(F)(F)F)nn34)n2)cc1` the inhibition at 48 h, 50 ug/mL [4] was 19.6%, the MIC [1] was 25 µg/mL (≈ 48.2 µM) and the MIC [2] was 25 µg/mL (≈ 48.2 µM). For the same compound, the MIC [3] was 25 µg/mL (≈ 48.2 µM).

`COc1ccc(-c2nc3sc(C)nn3c2/C=N/Nc2nc(-c3ccc(Cl)cc3)cs2)cc1` gave an inhibition at 48 h, 50 ug/mL [4] of 12.7%, an MIC [1] of 6.25 µg/mL (≈ 13 µM) and an MIC [2] of 12.5 µg/mL (≈ 26 µM). For the same compound, the MIC [3] was 12.5 µg/mL (≈ 26 µM).
